The term EC50 denotes the concentration giving half of the maximal effect.

For the assay, the target named is T1, rat mGluR5 (Rattus norvegicus, UniProt P31424).
T1 construct: expressed in transfected cells
Kind of assay: mGluR5 assay on HEK-expressing rat mGluR5 (fluorescent cell based Ca2+ mobilization assay). As to conditions: HEK-293 cells stably expressing rat mGluR5; no co-addition of glutamate; mean of at least three independent experiments in duplicate; read-out: Ca++ Flux (mean EC50). The procedure: mGluR5 Assay on HEK-Expressing Rat mGluR5
Positive functional expression of HEK-293 cells stably expressing rat mGluR5 receptor was determined by measuring intracellular Ca^2+ changes using a Fluorometric Imaging Plate Reader (FLIPR, Molecular Devices, Sunnyvale, Calif.) in response to glutamate or selective known mGluR5 agonists and antagonists. Rat mGluR5 RT-PCR products in HEK-293 cells were sequenced and found 100% identical to rat mGluR5 Genbank reference sequence (NM_017012). HEK-293 cells expressing rmGluR5 were maintained in media containing DMEM, dialyzed Fetal Bovine Serum (10%), Glutamax™ (2 mM), Penicillin (100 units/ml), Streptomycin (100 μg/ml), Geneticin (100 μg/ml) and Hygromycin-B (40 μg/ml) at 37° C./5% CO2.
After one day of incubation, cells were washed with assay buffer containing: 142 mM NaCl, 6 mM KCl, 1 mM […], 1 mM CaCl2, 20 mM HEPES, 1 g/L glucose, 0.125 mM sulfinpyrazone, pH 7.4. After 60 min of loading with 4 uM Fluo-4 (TefLabs, Austin, Tex.), the cells were washed three times with 50 μl of PBS Buffer and resuspended in 45 μl of assay Buffer. The plates were then transferred to a Fluorometric Imaging Plate Reader (FLIPR, Molecular Devices, Sunnyvale, Calif.) for the assessment of intracellular calcium flux. After monitoring the baseline fluorescence for 10 seconds, increasing concentrations of representative compound (from 0.01 to 60 μM) of the present invention diluted in Assay Buffer (15 μl of 4× dilutions) was added to the cell. The final DMSO concentration in the assay was 0.3%. In each experiment, fluorescence was then monitored as a function of time for 3 minutes and the data analyzed using Microsoft Excel and GraphPad Prism. Each data point was also measured two times.
Under these experimental conditions, this HEK-rat mGluR5 cell line is able to directly detect positive allosteric modulators without the need of co-addition of glutamate or mGluR5 agonist.
The concentration-response curves of representative compounds of the present invention were generated using the Prism GraphPad software (Graph Pad Inc, San Diego, USA). The curves were fitted to a four-parameter logistic equation:
(Y=Bottom+(Top−Bottom)/(1+10̂((Log EC50−X)*Hill Slope)
allowing determination of EC50 values.
The Table 1 below represents the mean EC50 obtained from at least three independent experiments of selected molecules performed in duplicate.

T1 sequence (P31424 21-1171 isoform P31424-2 limits assumed): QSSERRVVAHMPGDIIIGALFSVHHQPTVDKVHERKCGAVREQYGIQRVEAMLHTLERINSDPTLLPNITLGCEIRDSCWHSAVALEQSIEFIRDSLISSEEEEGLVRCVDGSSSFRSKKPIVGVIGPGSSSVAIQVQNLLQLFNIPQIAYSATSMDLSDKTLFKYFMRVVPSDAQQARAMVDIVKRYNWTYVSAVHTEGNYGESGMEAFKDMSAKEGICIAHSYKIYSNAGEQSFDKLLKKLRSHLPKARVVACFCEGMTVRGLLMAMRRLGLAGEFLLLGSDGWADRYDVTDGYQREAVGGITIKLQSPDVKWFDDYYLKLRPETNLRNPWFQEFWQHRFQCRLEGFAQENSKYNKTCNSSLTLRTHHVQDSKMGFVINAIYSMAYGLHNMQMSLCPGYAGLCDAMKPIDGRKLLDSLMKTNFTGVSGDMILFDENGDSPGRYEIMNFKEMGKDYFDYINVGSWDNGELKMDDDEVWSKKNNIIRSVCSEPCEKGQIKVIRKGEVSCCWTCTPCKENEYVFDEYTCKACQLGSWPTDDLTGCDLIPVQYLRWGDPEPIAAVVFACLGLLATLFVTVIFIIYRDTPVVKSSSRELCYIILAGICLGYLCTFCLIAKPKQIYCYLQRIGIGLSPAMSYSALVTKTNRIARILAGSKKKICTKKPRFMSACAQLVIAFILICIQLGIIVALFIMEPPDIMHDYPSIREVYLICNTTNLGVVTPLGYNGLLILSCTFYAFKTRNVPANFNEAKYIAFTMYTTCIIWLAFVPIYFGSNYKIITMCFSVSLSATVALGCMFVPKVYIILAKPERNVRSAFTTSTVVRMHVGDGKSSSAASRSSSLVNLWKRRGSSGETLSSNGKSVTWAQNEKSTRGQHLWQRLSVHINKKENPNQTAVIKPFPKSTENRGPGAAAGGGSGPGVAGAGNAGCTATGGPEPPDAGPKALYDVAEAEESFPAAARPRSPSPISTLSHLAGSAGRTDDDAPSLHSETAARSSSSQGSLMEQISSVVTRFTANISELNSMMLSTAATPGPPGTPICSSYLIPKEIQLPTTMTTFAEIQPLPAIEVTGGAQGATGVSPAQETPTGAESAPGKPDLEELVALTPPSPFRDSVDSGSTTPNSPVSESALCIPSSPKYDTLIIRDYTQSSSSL

As for `O=C(c1ccc(F)cc1)N1CCC[C@H](c2nc(-c3ccsc3)no2)C1` [Example 38, (4-Fluoro-phenyl)-[(S)-3-(3-thiophen-3-yl-[1,2,4]oxadiazol-5-yl)-piperidin-1-yl]-methanone], the EC50 was under 1 µM. `Cc1ncc(-c2noc([C@H]3CCCN(C(=O)c4ccc(F)cc4)C3)n2)s1` [Example 72, (4-Fluoro-phenyl)-{(S)-3-[3-(2-methyl-thiazol-5-yl)-[1,2,4]oxadiazol-5-yl]-piperidin-1-yl}-methanone]: the 50% effective concentration (EC50) fell in the range of 1 to 10 µM. In the case of `Cc1sccc1C(=O)N1CCC[C@H](c2nc(-c3ccc(F)cc3)no2)C1` [Example 36, {(S)-3-[3-(4-Fluoro-phenyl)-[1,2,4]oxadiazol-5-yl]-piperidin-1-yl}-(2-methyl-thiophen-3-yl)-methanone] it was 1 to 10 µM; in that of `O=C(c1cccnc1F)N1CCC[C@H](c2nc(-c3ccc(F)cc3)no2)C1` [Example 14, {(S)-3-[3-(4-Fluoro-phenyl)-[1,2,4]oxadiazol-5-yl]-piperidin-1-yl}-(2-fluoro-pyridin-3-yl)-methanone], 1 to 10 µM; in that of `Cc1occc1C(=O)N1CCC[C@H](c2nc(-c3ccc(F)cc3)no2)C1` [Example 24, {(S)-3-[3-(4-Fluoro-phenyl)-[1,2,4]oxadiazol-5-yl]-piperidin-1-yl}-(2-methyl-furan-3-yl)-methanone], 1 to 10 µM.

Take `Cc1cc(F)ccc1C(=O)N1CCC[C@H](c2nc(-c3ccccc3)no2)C1` [Example 63, (4-Fluoro-2-methyl-phenyl)-[(S)-3-(3-phenyl-[1,2,4]oxadiazol-5-yl)-piperidin-1-yl]-methanone]: the EC50 was 1 to 10 µM. In the case of `Cc1ccccc1-c1noc([C@H]2CCCN(C(=O)c3ccc(F)cc3)C2)n1` [Example 48, (4-Fluoro-phenyl)-[(S)-3-(3-o-tolyl-[1,2,4]oxadiazol-5-yl)-piperidin-1-yl]-methanone] it was over 10 µM. Under `Cc1nocc1C(=O)N1CCC[C@H](c2nc(-c3ccc(F)cc3)no2)C1` [Example 4, (S)-{3-[3-(4-Fluoro-phenyl)-[1,2,4]oxadiazol-5-yl]-piperidin-1-yl}-(3-methyl-isoxazol-4-yl)-methanone] stands 1 to 10 µM. In the case of `O=C(c1ccc(F)nc1)N1CCC[C@H](c2nc(-c3ccccc3)no2)C1` [Example 62, (6-Fluoro-pyridin-3-yl)-[(S)-3-(3-phenyl-[1,2,4]oxadiazol-5-yl)-piperidin-1-yl]-methanone] it was under 1 µM. Take `O=C(c1c[nH]nc1C(F)(F)F)N1CCC[C@H](c2nc(-c3ccc(F)cc3)no2)C1` [Example 41, {(S)-3-[3-(4-Fluoro-phenyl)-[1,2,4]oxadiazol-5-yl]-piperidin-1-yl}-(3-trifluoromethyl-1H-pyrazol-4-yl)-methanone]: the EC50 was over 10 µM. In the case of `Cc1oncc1C(=O)N1CCC[C@H](c2nc(-c3ccccc3)no2)C1` [Example 56, (5-Methyl-isoxazol-4-yl)-[(S)-3-(3-phenyl-[1,2,4]oxadiazol-5-yl)-piperidin-1-yl]-methanone] it was under 1 µM.

Regarding `O=C(c1ccc(F)cc1F)N1CCC[C@H](c2nc(-c3ccccc3F)no2)C1` [Example 60, (2,4-Difluoro-phenyl)-{(S)-3-[3-(2-fluoro-phenyl)-[1,2,4]oxadiazol-5-yl]-piperidin-1-yl}-methanone], the EC50 was under 1 µM. For `COc1ccsc1C(=O)N1CCC[C@H](c2nc(-c3ccc(F)cc3)no2)C1` [Example 31, {(S)-3-[3-(4-Fluoro-phenyl)-[1,2,4]oxadiazol-5-yl]-piperidin-1-yl}-(3-methoxy-thiophen-2-yl)-methanone], the EC50 was over 10 µM. Under `Cc1ncc(-c2noc([C@H]3CCCN(C(=O)c4ccc(F)nc4)C3)n2)s1` [Example 73, (6-Fluoro-pyridin-3-yl)-{(S)-3-[3-(2-methyl-thiazol-5-yl)-[1,2,4]oxadiazol-5-yl]-piperidin-1-yl}-methanone] stands over 10 µM. Under `Cc1oncc1C(=O)N1CCC[C@H](c2nc(-c3ccc(F)cc3F)no2)C1` [Example 65, {(S)-3-[3-(2,4-Difluoro-phenyl)-[1,2,4]oxadiazol-5-yl]-piperidin-1-yl}-(5-methyl-isoxazol-4-yl)-methanone] stands 1 to 10 µM; under `Cc1cc(F)ccc1C(=O)N1CCC[C@H](c2nc(-c3ccccc3F)no2)C1` [Example 71, (4-Fluoro-2-methyl-phenyl)-{(S)-3-[3-(2-fluoro-phenyl)-[1,2,4]oxadiazol-5-yl]-piperidin-1-yl}-methanone], 1 to 10 µM. On to `CNc1ccccc1C(=O)N1CCC[C@H](c2nc(-c3ccc(F)cc3)no2)C1` [Example 49, {(S)-3-[3-(4-Fluoro-phenyl)-[1,2,4]oxadiazol-5-yl]-piperidin-1-yl}-(2-methylamino-phenyl)-methanone], for which the EC50 was in the range of 1 to 10 µM.

For `Cc1ccccc1C(=O)N1CCC[C@H](c2nc(-c3ccc(F)cc3)no2)C1` [Example 19, {(S)-3-[3-(4-Fluoro-phenyl)-[1,2,4]oxadiazol-5-yl]-piperidin-1-yl}-o-tolyl-methanone], the EC50 lay in the range of 1 to 10 µM.

In the case of `O=C(c1ccc(F)cc1F)N1CCC[C@H](c2nc(-c3ccccn3)no2)C1` [Example 70, (2,4-Difluoro-phenyl)-[(S)-3-(3-pyridin-2-yl-[1,2,4]oxadiazol-5-yl)-piperidin-1-yl]-methanone], the EC50 lay within 1 to 10 µM. Under `Cc1cccnc1-c1noc([C@H]2CCCN(C(=O)c3ccc(F)cc3)C2)n1` [Example 40, (4-Fluoro-phenyl)-{(S)-3-[3-(3-methyl-pyridin-2-yl)-[1,2,4]oxadiazol-5-yl]-piperidin-1-yl}-methanone] stands over 10 µM; under `O=C(c1ccccc1NCc1ccccc1)N1CCC[C@H](c2nc(-c3ccc(F)cc3)no2)C1` [Example 55, (2-Benzylamino-phenyl)-{(S)-3-[3-(4-fluoro-phenyl)-[1,2,4]oxadiazol-5-yl]-piperidin-1-yl}-methanone], over 10 µM. On to `O=C(c1ccoc1)N1CCC[C@H](c2nc(-c3ccc(F)cc3)no2)C1` [Example 22, {(S)-3-[3-(4-Fluoro-phenyl)-[1,2,4]oxadiazol-5-yl]-piperidin-1-yl}-furan-3-yl-methanone], for which the EC50 was in the range of 1 to 10 µM. As for `CNc1cc(F)ccc1C(=O)N1CCC[C@H](c2nc(-c3ccc(F)cc3)no2)C1` [Example 42, (4-Fluoro-2-methylamino-phenyl)-{(S)-3-[3-(4-fluoro-phenyl)-[1,2,4]oxadiazol-5-yl]-piperidin-1-yl}-methanone], the EC50 was over 10 µM. Under `Cc1nnsc1C(=O)N1CCC[C@H](c2nc(-c3ccc(F)cc3)no2)C1` [Example 13, {(S)-3-[3-(4-Fluoro-phenyl)-[1,2,4]oxadiazol-5-yl]-piperidin-1-yl}-(4-methyl-[1,2,3]thiadiazol-5-yl)-methanone] stands 1 to 10 µM. Under `Cc1cc(F)ccc1C(=O)N1CCC[C@H](c2nc(-c3ccc(F)cc3F)no2)C1` [Example 67, {(S)-3-[3-(2,4-Difluoro-phenyl)-[1,2,4]oxadiazol-5-yl]-piperidin-1-yl}-(4-fluoro-2-methyl-phenyl)-methanone] stands 1 to 10 µM. In the case of `O=C(c1ccc(F)cc1)N1CCC[C@H](c2nc(-c3cnccn3)no2)C1` [Example 57, (4-Fluoro-phenyl)-[(S)-3-(3-pyrazin-2-yl-[1,2,4]oxadiazol-5-yl)-piperidin-1-yl]-methanone] it was over 10 µM.

The values above are taken from US20090197897A1, “Novel Oxadiazole Derivatives and Their Use as Positive Allosteric Modulators of Metabotropic Glutamate Receptors” (Addex Pharma SA, priority 2005, published 2009).
